Source: article PMC7255801, “Disease-associated mutations in the human TRPM3 render the channel overactive via two distinct mechanisms” (eLife, 2020)

How the values were obtained:
wild-type hTRPM3_1325 = molecular target: T1, wild-type hTRPM3_1325 (Homo sapiens, UniProt Q9HCF6); experiment: Two electrode voltage clamp in Xenopus oocytes, wild type channel; assay type: cell-based; details: wild type TRPM3, 50 μM, room temperature (20–22°C)
T1 construct: expressed in transfected cells; host or cells: Xenopus laevis oocytes (cRNA injection)
T1 sequence (Q9HCF6 1-1325 isoform Q9HCF6-10): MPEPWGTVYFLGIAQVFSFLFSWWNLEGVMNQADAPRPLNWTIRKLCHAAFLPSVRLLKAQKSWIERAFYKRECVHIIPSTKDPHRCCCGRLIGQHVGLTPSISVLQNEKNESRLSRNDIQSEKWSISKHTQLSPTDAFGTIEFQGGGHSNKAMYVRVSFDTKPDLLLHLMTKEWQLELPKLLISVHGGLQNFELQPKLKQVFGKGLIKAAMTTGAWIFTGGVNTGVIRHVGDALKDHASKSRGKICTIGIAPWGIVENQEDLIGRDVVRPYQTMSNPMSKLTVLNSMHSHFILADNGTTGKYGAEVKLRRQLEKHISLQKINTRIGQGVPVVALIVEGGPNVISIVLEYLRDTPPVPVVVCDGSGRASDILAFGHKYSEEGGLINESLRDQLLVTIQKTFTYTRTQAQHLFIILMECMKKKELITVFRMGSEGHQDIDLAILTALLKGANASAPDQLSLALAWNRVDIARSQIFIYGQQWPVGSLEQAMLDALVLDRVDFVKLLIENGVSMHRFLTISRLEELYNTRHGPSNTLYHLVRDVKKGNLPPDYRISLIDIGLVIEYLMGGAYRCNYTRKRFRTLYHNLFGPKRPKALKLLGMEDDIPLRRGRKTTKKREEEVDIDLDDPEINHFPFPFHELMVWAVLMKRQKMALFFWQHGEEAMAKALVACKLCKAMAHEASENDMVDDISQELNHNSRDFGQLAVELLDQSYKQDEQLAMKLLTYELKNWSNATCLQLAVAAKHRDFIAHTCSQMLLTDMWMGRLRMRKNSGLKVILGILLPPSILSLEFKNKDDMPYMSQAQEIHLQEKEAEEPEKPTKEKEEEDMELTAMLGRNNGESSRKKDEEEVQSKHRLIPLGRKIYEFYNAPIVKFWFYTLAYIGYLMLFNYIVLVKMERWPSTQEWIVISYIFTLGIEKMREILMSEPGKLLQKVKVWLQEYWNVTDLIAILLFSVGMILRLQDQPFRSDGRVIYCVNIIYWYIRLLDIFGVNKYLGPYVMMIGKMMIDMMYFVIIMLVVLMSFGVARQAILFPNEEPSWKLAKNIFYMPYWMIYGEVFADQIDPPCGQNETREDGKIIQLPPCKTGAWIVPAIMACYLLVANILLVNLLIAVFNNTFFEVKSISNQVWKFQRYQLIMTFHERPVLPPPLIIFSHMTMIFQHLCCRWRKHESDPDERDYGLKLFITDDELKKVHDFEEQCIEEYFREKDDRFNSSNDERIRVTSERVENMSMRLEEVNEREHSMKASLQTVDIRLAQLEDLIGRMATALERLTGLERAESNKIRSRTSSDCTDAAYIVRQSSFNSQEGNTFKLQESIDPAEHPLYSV
Description: (§1) Xenopus laevis oocytes were prepared as described earlier ([Badheka et al., 2015]). All animal procedures were approved by the Institutional Animal Care and Use Committee at Rutgers New Jersey Medical School. In brief, frogs were anesthetized in 0.25% ethyl 3-aminobenzoate methanesulfonate solution (MS222; Sigma-Aldrich); bags of ovaries were removed surgically from the anesthetized frogs. Individual oocytes were obtained by overnight digestion at 16°C in 0.2–0.3 mg/ml type 1A collagenase (Sigma-Aldrich), dissolved in a solution containing 82.5 mM NaCl, 2 mM KCl, 1 mM MgCl2, and […] HEPES, pH 7.4 (OR2 solution). The next day the collagenase containing solution was discarded and the oocytes were washed multiple times with OR2 solution. […]
(§2) Two electrode voltage clamp experiments were performed as described ([Badheka et al., 2015]). In brief, oocytes were placed in extracellular solution (97 mM NaCl, 2 mM KCl, 1 mM MgCl2, and […] HEPES, pH 7.4), and currents were recorded with thin-wall inner filament– containing glass pipettes (World Precision Instruments) filled with 3 M KCl in 1% agarose. Currents were measured with a ramp protocol from −100 to 100 mV once every 0.5 s with a GeneClamp 500B amplifier and analyzed with the pClamp 9.0 software (Molecular Devices). […]

non-injected oocytes = experiment: Two electrode voltage clamp in non-injected oocytes; assay type: cell-based, Xenopus laevis; details: 50 μM, n = 5
Description: as §1, §2

Inhibition of basal current (wild-type hTRPM3_1325): small reduction
Structure (SMILES): CCC1(c2ccccc2)C(=O)NCNC1=O [primidone]
Inhibition of basal current (non-injected oocytes): did not induce any inhibition
